The values that follow come from US10301284B2, “Therapeutic inhibitory compounds” (LifeSci Pharmaceuticals, Inc., priority 2016, dated 2019).

Data set [1] addresses T1, human Plasma Kallikrein (Homo sapiens (Human), UniProt P03952). As to the kind of experiment: In vitro enzyme inhibition of human plasma kallikrein (Pro-Phe-Arg-AMC cleavage). The format is biochemical. The conditions noted are these: human plasma kallikrein, PFR-AMC substrate, 37° C.; read-out: hPK IC50. In outline: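 Human plasma kallikrein preincubated 5 min at 37 °C with compound in 50 mM Tris-HCl pH 7.5, 150 mM NaCl, 0.01% Triton X-100. Reaction started with Pro-Phe-Arg-AMC, fluorescence read every 43 s for 1 h at 37 °C. IC50 from highest mean velocity over 20 reads (~15 min).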

The target in data set [2] is T1, human Plasma Kallikrein. As to the kind of experiment: Human whole blood kallikrein inhibition (ellagic acid-activated human plasma, Z-FR-2-AMC substrate). The format is biochemical. How it is done: The ability of the compounds disclosed herein to inhibit human plasma kallikrein activity was quantified according to the procedures below.
All dilutions were prepared in an assay buffer comprising 50 mM Tris-HCl pH 7.2, 150 mM NaCl, and 0.01% Triton X-100.
Human plasma was thawed on ice and centrifuged for 15 min at 4° C. to remove platelets. A 1 mM stock solution of ellagic acid was diluted to 8 μM and mixed with human plasma, after removing platelets, at a ratio of 1:0.8. The mixture of human plasma and ellagic acid was further diluted 32-fold in the assay buffer, to yield the final mixture for use in the inhibition assay.
A 22.5 μL volume of the final mixture of human plasma and ellagic acid was added to a 96-well microwell plate and the plate was incubated for 15 min at 37° C.
The test compound solution was prepared to provide final concentrations of 20 μM, 5 μM, 1.25 μM, 312.5 nM, 78.125 nM, 19.531 nM, 4.883 nM, 1.221 nM, 0.305 nM, and 0.076 nM. Each test compound concentration was tested in duplicates.
In addition to the inhibitor control and test wells, the 96 well assay plate included positive control wells which contain the mixture of human plasma and ellagic acid without test compounds, and background wells which contain neither the mixture of human plasma and ellagic acid nor the test compounds. The total volume of liquid in positive control and background wells was brought up to 35 μL using the assay buffer.
The assay plate containing test compounds mixed with human plasma and ellagic acid and appropriate controls was incubated at 37° C. for 5 min. A 10 mM stock solution of substrate Z-FR-2-AMC was diluted to 133.2 μM in the assay buffer, and 15 μL of the diluted substrate was added to each well, to yield a final substrate concentration of 40 μM in each well. The reagents were mixed by shaking the plate gently for 30 sec.
The enzyme reaction was quantified by immediate kinetic reading of the assay plate using excitation/emission wavelengths of 330 nm/440 nm respectively. Fluorescence intensity was recorded for 60 min, using a time interval of 43 sec.
The inhibition activity of the test compounds were evaluated using the IC50 values, calculated according to the dose-response curve of the test compounds, fitted using the “log(inhibitor)−response(variable slope)” equation in GraphPadPrism software (GraphPad Software, Inc.).
The percentage inhibition (EC50) was calculated using the following equation:
[formula] where, Mean(BG) is the average value of the fluorescence intensity of the background wells and Mean(PC) is the average value of the fluorescence intensity of the positive control wells.

A short description of data set [3]: Pharmacokinetic evaluation, oral exposure in rats. The note with it: male Sprague-Dawley rats, single oral dose 10 mg/kg via oral gavage, plasma. The format is in vivo. How it is done: Pharmacokinetic studies of select compounds were performed to assess the pharmacokinetic properties. Male Sprague-Dawley rats were administered a single oral dose of the test compound at 10 mg/kg (dose concentration: 2 mg/mL, dose volume: 5 ml/kg) via oral gavage. Blood samples were collected via jugular vein at pre-dose, post-dose 5 min, 15 min, 30 min, 1 h, 2 h, 4 h, 6 h, 8 h, 10 h and 24 h, and centrifuged (8000 rpm for 6 minutes at 2-8° C.). The resulting plasma fractions were analyzed by LC/MS/MS to determine the concentration of the test compound.

The mark [4] stands for this setting: human plasma activated with ellagic acid, Z-FR-2-AMC 40 μM, 37° C., read-out: HWB EC50.

Structures are written as SMILES. pEC50, pIC50: −log10 of the molar value. Like-named read-outs stand apart in the source and are kept apart here.

T1 sequence (P03952 391-638 limits assumed): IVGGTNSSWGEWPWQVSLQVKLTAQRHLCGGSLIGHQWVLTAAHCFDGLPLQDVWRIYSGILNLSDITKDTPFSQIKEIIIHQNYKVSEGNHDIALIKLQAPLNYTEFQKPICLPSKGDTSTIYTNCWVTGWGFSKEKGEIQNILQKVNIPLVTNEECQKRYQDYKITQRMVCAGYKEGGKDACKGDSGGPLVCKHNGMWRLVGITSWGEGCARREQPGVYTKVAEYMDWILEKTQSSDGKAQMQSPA
T1 sequence (P03952 20-390 partner limits assumed): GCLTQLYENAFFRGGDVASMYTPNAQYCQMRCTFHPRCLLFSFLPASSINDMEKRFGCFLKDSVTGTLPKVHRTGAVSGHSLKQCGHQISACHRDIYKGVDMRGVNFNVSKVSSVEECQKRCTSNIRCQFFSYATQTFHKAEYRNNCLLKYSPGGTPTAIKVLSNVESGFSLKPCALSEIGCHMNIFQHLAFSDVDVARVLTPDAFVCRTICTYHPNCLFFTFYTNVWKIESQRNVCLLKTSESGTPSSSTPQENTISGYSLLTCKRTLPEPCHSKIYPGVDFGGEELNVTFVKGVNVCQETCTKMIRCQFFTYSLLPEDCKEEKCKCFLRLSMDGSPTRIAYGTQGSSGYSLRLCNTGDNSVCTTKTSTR

In the case of `Cc1cc(N)nc(C)c1CNC(=O)c1nn(Cc2ccc3ncc(Cl)cc3c2)cc1C(F)(F)F` [Example 22, N-((6-amino-2,4-dimethylpyridin-3-yl)methyl)-1-((3-chloroquinolin-6-yl)methyl)-4-(trifluoromethyl)-1H-pyrazole-3-carboxamide], the pIC50 in data set [1] was above 7.00. In addition, the pEC50 in data set [2] (setting [4]) is above 7.00. In addition, in data set [3] (rat, read-out: AUC), the AUC was 100 to 1000 ng·h/mL.

Regarding `Cc1cc(N)nc(C)c1CNC(=O)c1cn(Cc2ccc3ncc(Cl)cc3c2)nc1CN` [Example 27, N-((6-amino-2,4-dimethylpyridin-3-yl)methyl)-3-(aminomethyl)-1-((3-chloroquinolin-6-yl)methyl)-1H-pyrazole-4-carboxamide], the pIC50 in data set [1] was above 7.00. For the same compound, in data set [2] (setting [4]), the pEC50 is above 7.00. Besides, the AUC in data set [3] (rat, read-out: AUC) was below 100 ng·h/mL.

In the case of `Cc1cc(N)nc(C)c1CNC(=O)c1cn(Cc2ccc3ncc(Cl)cc3c2)c(N)n1` [Example 28, 2-amino-N-((6-amino-2,4-dimethylpyridin-3-yl)methyl)-1-((3-chloroquinolin-6-yl)methyl)-1H-imidazole-4-carboxamide], in data set [1], the pIC50 was above 7.00. Besides, in data set [2] (setting [4]), the pEC50 is above 7.00. In addition, the AUC in data set [3] (rat, read-out: AUC) was below 100 ng·h/mL.

For `Cc1cc(N)nc(C)c1CNC(=O)c1coc(Cc2ccc3ncc(Cl)cc3c2)n1` [Example 29, N-((6-amino-2,4-dimethylpyridin-3-yl)methyl)-2-((3-chloroquinolin-6-yl)methyl)oxazole-4-carboxamide], the pIC50 in data set [1] was above 7.00. The pEC50 in data set [2] (setting [4]) was above 7.00. Also, the AUC in data set [3] (rat, read-out: AUC) was in the range of 1000 to 10000 ng·h/mL.

Turning to `Cc1cc(N)nc(C)c1CNC(=O)c1nnc(Cc2ccc3ncc(Cl)cc3c2)o1` [Example 30, N-((6-amino-2,4-dimethylpyridin-3-yl)methyl)-5-((3-chloroquinolin-6-yl)methyl)-1,3,4-oxadiazole-2-carboxamide], the pIC50 in data set [1] is above 7.00. Also, the pEC50 in data set [2] (setting [4]) is above 7.00. In data set [3] (rat, read-out: AUC), the AUC was 1000 to 10000 ng·h/mL.

In the case of `Cc1cc(N)nc(C)c1CNC(=O)c1ncc(Cc2ccc3ncc(Cl)cc3c2)o1` [Example 31, N-((6-amino-2,4-dimethylpyridin-3-yl)methyl)-5-((3-chloroquinolin-6-yl)methyl)oxazole-2-carboxamide], the pIC50 in data set [1] is above 7.00. For the same compound, in data set [2] (setting [4]), the pEC50 was above 7.00. For the same compound, the AUC in data set [3] (rat, read-out: AUC) fell in the range of 1000 to 10000 ng·h/mL.

Consider `Cc1cc(N)nc(C)c1CNC(=O)c1cn(Cc2ccc3ncc(Cl)cc3c2)c2ncncc12` [Example 32, N-((6-amino-2,4-dimethylpyridin-3-yl)methyl)-7-((3-chloroquinolin-6-yl)methyl)-7H-pyrrolo[2,3-d]pyrimidine-5-carboxamide], for which the pIC50 in data set [1] is above 7.00. The pEC50 in data set [2] was above 7.00. Also, the AUC in data set [3] (rat, read-out: AUC) is below 100 ng·h/mL.

With `Cc1cc(N)nc(C)c1CNC(=O)c1cn(Cc2ccc3ncc(Cl)cc3c2)c2ccncc12` [Example 35, N-((6-amino-2,4-dimethylpyridin-3-yl)methyl)-1-((3-chloroquinolin-6-yl)methyl)-1H-pyrrolo[3,2-c]pyridine-3-carboxamide], the pIC50 in data set [1] was above 7.00. This compound showed a pEC50 in data set [2] above 7.00. Also, in data set [3], the AUC result is on record as “BLQ”.

Turning to `Cc1cc(N)nc(C)c1CNC(=O)c1nn(Cc2ccc3ncc(Cl)cc3c2)cc1C#N` [Example 36, N-((6-amino-2,4-dimethylpyridin-3-yl)methyl)-1-((3-chloroquinolin-6-yl)methyl)-4-cyano-1H-pyrazole-3-carboxamide], in data set [1], the pIC50 is above 7.00. Also, the pEC50 in data set [2] (setting [4]) is above 7.00. Moreover, in data set [3] (rat, read-out: AUC), the AUC fell in the range of 100 to 1000 ng·h/mL.

Turning to `Cc1cc(N)nc(C)c1CNC(=O)c1oc(Cc2ccc3ncc(Cl)cc3c2)nc1C(F)(F)F` [Example 37, N-((6-amino-2,4-dimethylpyridin-3-yl)methyl)-2-((3-chloroquinolin-6-yl)methyl)-4-(trifluoromethyl)oxazole-5-carboxamide], the pIC50 in data set [1] is above 7.00. Besides, the pEC50 in data set [2] (setting [4]) is above 7.00. For the same compound, the AUC in data set [3] (rat, read-out: AUC) lay in the range of 100 to 1000 ng·h/mL.

Consider `Cc1cc(N)nc(C)c1CNC(=O)c1cn(Cc2ccc3ncc(Cl)cc3c2)nc1C` [Example 38, N-((6-amino-2,4-dimethylpyridin-3-yl)methyl)-1-((3-chloroquinolin-6-yl)methyl)-3-methyl-1H-pyrazole-4-carboxamide], for which the pIC50 in data set [1] is above 7.00. The pEC50 in data set [2] (setting [4]) was above 7.00. For the same compound, in data set [3] (rat, read-out: AUC), the AUC lay within 1000 to 10000 ng·h/mL.

Take `COc1nn(Cc2ccc3ncc(Cl)cc3c2)cc1C(=O)NCc1c(C)cc(N)nc1C` [Example 39, N-((6-amino-2,4-dimethylpyridin-3-yl)methyl)-1-((3-chloroquinolin-6-yl)methyl)-3-methoxy-1H-pyrazole-4-carboxamide]: the pIC50 in data set [1] was above 7.00. The pEC50 in data set [2] (setting [4]) is above 7.00. In addition, the AUC in data set [3] (rat, read-out: AUC) was 1000 to 10000 ng·h/mL.

Turning to `Cc1cc(N)nc(C)c1CNC(=O)c1cn(Cc2cc(F)c3ncc(Cl)cc3c2)nc1C#N` [Example 52, N-((6-amino-2,4-dimethylpyridin-3-yl)methyl)-1-((3-chloro-8-fluoroquinolin-6-yl)methyl)-3-cyano-1H-pyrazole-4-carboxamide], in data set [1], the pIC50 is above 7.00. The negative-log EC50 (pEC50) in data set [2] (setting [4]) is above 7.00. Also, the AUC in data set [3] (rat, read-out: AUC) fell in the range of 100 to 1000 ng·h/mL.

For the compound `N#Cc1nn(Cc2cc(F)c3ncc(Cl)cc3c2)cc1C(=O)NCc1ccc2c(N)nccc2c1` [Example 54, N-((1-aminoisoquinolin-6-yl)methyl)-1-((3-chloro-8-fluoroquinolin-6-yl)methyl)-3-cyano-1H-pyrazole-4-carboxamide], the pIC50 in data set [1] was above 7.00. Moreover, the pEC50 in data set [2] (setting [4]) is above 7.00. In addition, the AUC in data set [3] (rat, read-out: AUC) is below 100 ng·h/mL.

Take `Cc1cc(N)nc(C)c1CNC(=O)c1cn(Cc2cc(C(C)(C)O)c3ncc(Cl)cc3c2)nc1C#N` [Example 58, N-((6-amino-2,4-dimethylpyridin-3-yl)methyl)-1-((3-chloro-8-(2-hydroxypropan-2-yl)quinolin-6-yl)methyl)-3-cyano-1H-pyrazole-4-carboxamide]: the pIC50 in data set [1] was above 7.00. In addition, in data set [2] (setting [4]), the pEC50 is above 7.00. Further, in data set [3] (rat, read-out: AUC), the area under the curve (AUC) is below 100 ng·h/mL.

Turning to `CC(C)(O)c1cc(Cn2cc(C(=O)NCc3ccc4c(N)nccc4c3)c(C#N)n2)cc2cc(Cl)cnc12` [Example 59, N-((1-aminoisoquinolin-6-yl)methyl)-1-((3-chloro-8-(2-hydroxypropan-2-yl)quinolin-6-yl)methyl)-3-cyano-1H-pyrazole-4-carboxamide], the pIC50 in data set [1] was above 7.00. The pEC50 in data set [2] (setting [4]) was above 7.00. In data set [3] (rat, read-out: AUC), the AUC was below 100 ng·h/mL.

Take `Cc1cnc2c(S(C)(=O)=O)cc(Cn3cc(C(=O)NCc4c(C)cc(N)nc4C)c(C#N)n3)cc2c1` [Example 61, N-((6-amino-2,4-dimethylpyridin-3-yl)methyl)-3-cyano-1-((3-methyl-8-(methylsulfonyl)quinolin-6-yl)methyl)-1H-pyrazole-4-carboxamide]: the pIC50 in data set [1] is above 7.00. Further, the pEC50 in data set [2] (setting [4]) is above 7.00. In addition, in data set [3] (rat, read-out: AUC), the AUC was below 100 ng·h/mL.

Take `Cc1cnc2c(C#N)cc(Cn3cc(C(=O)NCc4c(C)cc(N)nc4C)c(C#N)n3)cc2c1` [Example 62, N-((6-amino-2,4-dimethylpyridin-3-yl)methyl)-3-cyano-1-((8-cyano-3-methylquinolin-6-yl)methyl)-1H-pyrazole-4-carboxamide]: the pIC50 in data set [1] was above 7.00. Moreover, the pEC50 in data set [2] (setting [4]) is above 7.00. Moreover, the AUC in data set [3] (rat, read-out: AUC) is below 100 ng·h/mL.

On to `Cc1cc(N)nc(C)c1CNC(=O)c1cn(Cc2ccc3ncc(C4CC4)cc3c2)nc1C#N` [Example 65, N-((6-amino-2,4-dimethylpyridin-3-yl)methyl)-3-cyano-1-((3-cyclopropylquinolin-6-yl)methyl)-1H-pyrazole-4-carboxamide], for which the pIC50 in data set [1] is above 7.00. The pEC50 in data set [2] (setting [4]) is above 7.00. Besides, in data set [3] (rat, read-out: AUC), the exposure (AUC) was in the range of 100 to 1000 ng·h/mL.
